Assay results: ChEMBL document CHEMBL5608235, “Tricyclic Benzo[1,3]oxazinyloxazolidinones as Potent Antibacterial Agents against Drug-Resistant Pathogens” (J Med Chem, 2024)
≈ marks a conversion by molar mass, not a printed value.

How the values were obtained:
[1] = test system: Mycobacterium tuberculosis; assay: Antibacterial activity against isoniazid/streptomycin/rifampicin/ethambutol/rifabutin/para-axminosalicylate/ofloxacin resistant Mycobacterium tuberculosis 13946 assessed as inhibition of bacterial growth incubated for 7 days by alamar blue assay; type: functional; details: Mycobacterium tuberculosis, 13946, 168 h; time 7 day
[2] = test system: Mycobacterium tuberculosis; assay: Antibacterial activity against isoniazid/streptomycin/rifampicin/ethambutol/para-axminosalicylate/prothionamide/capreomycin resistant Mycobacterium tuberculosis 14862 assessed as inhibition of bacterial growth incubated for 7 days by alamar blue assay; type: functional; details: Mycobacterium tuberculosis, 14862, 168 h; time 7 day

SMILES: COC(=O)NC[C@@H]1OC(=O)N2Cc3cc(-c4ccc(-c5nnn(C)n5)nc4)c(F)cc3O[C@@H]12
- MIC [1]: 0.39 µg/mL (≈ 0.856 µM)
- MIC [2]: 0.22 µg/mL (≈ 0.483 µM)

SMILES: CC(=O)NC[C@@H]1OC(=O)N2Cc3cc(-c4ccc(C#N)cc4)c(F)cc3O[C@@H]12
- MIC [1]: 0.11 µg/mL (≈ 0.288 µM)
- MIC [2]: 0.41 µg/mL (≈ 1.08 µM)

SMILES: CO[C@H]1/C=C/O[C@@]2(C)Oc3c(C)c(O)c4c(O)c(c(/C=N/N5CCN(C)CC5)c(O)c4c3C2=O)NC(=O)/C(C)=C\C=C\[C@H](C)[C@H](O)[C@@H](C)[C@@H](O)[C@@H](C)[C@H](OC(C)=O)[C@@H]1C [RIFAMPIN]
- MIC [1]: > 10 µg/mL
- MIC [2]: > 10 µg/mL

SMILES: CC(=O)NC[C@@H]1OC(=O)N2Cc3c(cc(F)c(-c4ccc(C#N)nc4)c3F)O[C@@H]12
- MIC [1]: 0.48 µg/mL (≈ 1.2 µM)
- MIC [2]: 0.47 µg/mL (≈ 1.17 µM)

SMILES: NNC(=O)c1ccncc1 [ISONIAZID]
- MIC [1]: 4.78 µg/mL (≈ 34.9 µM)
- MIC [2]: > 10 µg/mL

SMILES: COC(=O)NC[C@@H]1OC(=O)N2Cc3cc(-c4ccc(C#N)nc4)c(F)cc3O[C@@H]12
- MIC [1]: 0.87 µg/mL (≈ 2.18 µM)
- MIC [2]: 0.6 µg/mL (≈ 1.51 µM)

SMILES: CC(=O)NC[C@@H]1OC(=O)N2Cc3c(cc(F)c(-c4ccc(-c5nnn(C)n5)nc4)c3F)O[C@@H]12
- MIC [1]: 0.28 µg/mL (≈ 0.612 µM)
- MIC [2]: 0.33 µg/mL (≈ 0.721 µM)

SMILES: COC(=O)NC[C@@H]1OC(=O)N2Cc3cc(-c4ccc(C#N)cc4)c(F)cc3O[C@@H]12
- MIC [1]: 0.56 µg/mL (≈ 1.41 µM)
- MIC [2]: 0.24 µg/mL (≈ 0.604 µM)
